Results reported in PubChem BioAssay (NCI).
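The compound was tested at five concentrations on cells cultured in 96-well plates, with a 48-hour exposure period. GI50 is the concentration that inhibits growth by half. TGI denotes the concentration required for complete inhibition of growth.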

Experiments:
Test in all cases: growth of human tumour cells (NCI), 48 h
HOP-62 NSCLC = tested on: HOP-62 NSCLC
HS 578T breast = tested on: HS 578T breast
IGROV1 ovarian = tested on: IGROV1 ovarian
LOX IMVI melanoma = tested on: LOX IMVI melanoma
OVCAR-4 ovarian = tested on: OVCAR-4 ovarian
OVCAR-8 ovarian = tested on: OVCAR-8 ovarian
PC-3 prostate = tested on: PC-3 prostate
RXF 393 renal = tested on: RXF 393 renal
SF-539 CNS = tested on: SF-539 CNS
SNB-75 CNS = tested on: SNB-75 CNS

Row | SMILES | TGI (HOP-62 NSCLC) [µM] | TGI (HS 578T breast) [µM] | TGI (IGROV1 ovarian) [µM] | TGI (LOX IMVI melanoma) [µM] | TGI (OVCAR-4 ovarian) [µM] | TGI (OVCAR-8 ovarian) [µM] | TGI (PC-3 prostate) [µM] | TGI (RXF 393 renal) [µM] | TGI (SF-539 CNS) [µM] | TGI (SNB-75 CNS) [µM] | GI50 (IGROV1 ovarian) [µM] | GI50 (OVCAR-4 ovarian) [µM] | GI50 (PC-3 prostate) [µM] | GI50 (RXF 393 renal) [µM] | GI50 (SF-539 CNS) [µM] | GI50 (SNB-75 CNS) [µM] | GI50 (HOP-62 NSCLC) [µM] | GI50 (HS 578T breast) [µM] | GI50 (LOX IMVI melanoma) [µM] | GI50 (OVCAR-8 ovarian) [µM]
1 | CN(CCO)Cc1ncccc1O | > 100 | > 100 | > 100 | > 100 | > 100 | > 100 | > 100 | > 100 | > 100 | > 100 | – | – | – | – | – | – | – | – | – | –
2 | c1cc(-c2ccc(-c3nc4ccc(C5=NCCN5)cc4s3)s2)ccc1C1=NCCN1 | 0.257 | – | 2.52 | – | 0.5 | 0.801 | 2.27 | – | 0.319 | – | – | – | – | – | – | – | – | – | – | –
3 | COC(=O)c1c(C)[nH]c2c1C(=O)C(=O)c1nc(C)c(C)nc1-2 | 22 | 58.6 | 36.1 | 24.1 | 28.7 | 26.8 | 29.3 | 13.4 | 24.8 | 7.95 | – | – | – | – | – | – | – | – | – | –
4 | CN1CC(c2ccccc2)C(O)(C2(c3ccccc3)CN(C)CC(c3ccccc3)C2=O)C(c2ccccc2)C1 (stereo unspecified) | > 100 | 94.2 | > 100 | > 100 | > 100 | > 100 | > 100 | – | > 100 | – | – | – | – | – | – | – | – | – | – | –
5 | Clc1ccc(C2CC(c3cccc(Nc4ccncc4)c3)=NN2c2ccc(Cl)cc2)cc1 (stereo unspecified) | – | – | 3.18 | – | 3.08 | – | 3.08 | 2.94 | 3.03 | 2.56 | 1.65 | 1.66 | 1.55 | 1.54 | 1.64 | 1.21 | – | – | – | –
6 | CCc1c2cc(OC)c(OC)cc2cc2c3cc(OC)c(OC)cc3cc[n+]12 (tested in a mixture with another compound) | > 95.4 | > 89.1 | > 85.3 | > 63 | > 85.6 | > 72.6 | > 83.1 | > 100 | > 94.9 | 38.4 | – | – | – | – | – | – | – | – | – | –
7 | O=C(O)CCO/N=C1/C(c2c(O)[nH]c3ccccc23)=Nc2ccccc21 | > 100 | > 100 | > 100 | 44.8 | > 100 | > 100 | > 100 | 17.5 | > 100 | 53.5 | – | – | – | – | – | – | – | – | – | –
8 | CC[C@@]1(OC(=O)CN(C)C)C(=O)OCc2c1cc1n(c2=O)Cc2cc3c(N)cccc3nc2-1 | 0.432 | 58 | 0.421 | 0.162 | 14.6 | 0.488 | > 100 | 0.576 | – | 0.283 | 0.0609 | 0.625 | 0.0524 | 0.144 | – | 0.0428 | 0.0119 | 2.03 | 0.014 | 0.0272
9 | OC(c1ccc(Cl)cc1)(c1ccc(Cl)cc1)c1cncnc1 | 35.3 | 66.6 | – | > 100 | 41.5 | 54.8 | 31.7 | 28.4 | – | 52.7 | – | – | – | – | – | – | – | – | – | –
10 | CCCCN(CCCC)CCC(O)c1cc(-c2ccc(C(F)(F)F)cc2)nc(-c2ccc(C(F)(F)F)cc2)c1 (stereo unspecified) | > 100 | – | > 100 | > 100 | > 100 | > 100 | > 100 | – | > 100 | > 100 | – | – | – | – | – | – | – | – | – | –
11 | COc1ccc(C(=O)O[C@H]2CC[C@@]3(C)[C@@H]4CC[C@H]5[C@]6(O)C[C@H](O)[C@@]7(O)[C@@H](CN8C[C@@H](C)CC[C@H]8[C@@]7(C)O)[C@]6(O)C[C@@]53OC24O)cc1OC | > 100 | > 100 | > 100 | > 100 | > 100 | > 100 | > 100 | > 100 | > 100 | > 100 | – | – | – | – | – | – | – | – | – | –
12 | CN(C)CCCNc1ccc2nnn3c4ccc(OC(=O)c5ccccc5)cc4c(=O)c1c23 | 20.9 | 36.6 | 36.3 | 15.2 | 11.7 | 39.8 | 23.8 | 12.8 | 22.7 | – | – | – | – | – | – | – | – | – | – | –
13 | O=S(=O)(O)c1cc(S(=O)(=O)O)c2cc(N=Nc3c(O)ccc4ccccc34)ccc2c1 | > 100 | > 100 | > 100 | > 100 | > 100 | > 100 | > 100 | > 100 | – | > 100 | – | – | – | – | – | – | – | – | – | –
14 | CCOC(=O)Nc1sc2c(c1C#N)CC(C)CC2 (stereo unspecified) | > 100 | 65.9 | > 100 | 54.5 | > 100 | > 100 | 41.8 | 70.2 | – | 38.2 | – | – | – | – | – | – | – | – | – | –
15 | O=C1CCCC/C1=C1/SC(=Nc2ccccc2)C(=Nc2ccccc2)N1c1ccccc1 | > 100 | > 100 | > 100 | – | – | > 100 | – | 40 | – | > 100 | – | – | – | – | – | – | – | – | – | –
16 | O=C(Nn1c(-c2cccs2)nc2ccc(I)cc2c1=O)c1ccccc1 | > 100 | – | 82.6 | 46.9 | 80.6 | > 100 | > 100 | > 100 | > 100 | – | – | – | – | – | 30.1 | – | – | – | – | –

Row | SMILES | TGI (HOP-62 NSCLC) [µM] | TGI (HS 578T breast) [µM] | TGI (IGROV1 ovarian) [µM] | TGI (LOX IMVI melanoma) [µM] | TGI (OVCAR-4 ovarian) [µM] | TGI (OVCAR-8 ovarian) [µM] | TGI (PC-3 prostate) [µM] | TGI (RXF 393 renal) [µM] | TGI (SF-539 CNS) [µM] | TGI (SNB-75 CNS) [µM] | GI50 (IGROV1 ovarian) [µM] | GI50 (OVCAR-4 ovarian) [µM] | GI50 (PC-3 prostate) [µM] | GI50 (RXF 393 renal) [µM] | GI50 (SF-539 CNS) [µM] | GI50 (SNB-75 CNS) [µM] | GI50 (HOP-62 NSCLC) [µM] | GI50 (HS 578T breast) [µM] | GI50 (LOX IMVI melanoma) [µM] | GI50 (OVCAR-8 ovarian) [µM]
17 | CC1C2CCC3C(O)C2(CC(O)C2(O)C1CC(O)C2(C)C)CC3(C)O (stereo unspecified) | – | > 100 | > 100 | > 100 | > 100 | > 100 | > 100 | – | > 100 | – | – | – | – | – | – | – | – | – | – | –
18 | COc1ccc(/C=C2\C[C@H]3[C@@H]4CC=C5C[C@@H](OC(C)=O)CC[C@]5(C)[C@H]4CC[C@]3(C)\C2=N\O)cc1OC | > 100 | > 100 | > 100 | > 100 | > 100 | > 100 | > 100 | > 100 | > 100 | > 100 | – | – | – | – | – | – | – | – | – | –
19 | CCC1C(C#N)=C(O)NC(O)=C1C#N | > 100 | – | > 100 | > 100 | > 100 | > 100 | – | > 100 | > 100 | > 100 | – | – | – | – | – | – | – | – | – | –
20 | O=C1C[C@H](COCc2ccccc2)NC(=O)C[C@H](COCc2ccccc2)NC(=O)C[C@H](COCc2ccccc2)N1 | > 100 | > 100 | > 100 | > 100 | > 100 | > 100 | > 100 | 27.1 | 75.1 | 8.27 | – | – | – | – | – | – | – | – | – | –
21 | COC1CC(OC2CCC3(C)C(=CCC4C3C(OC(C)=O)C(OC(=O)CC(C)C)C3(C)C(C(C)=O)CCC43O)C2)OC(C)C1OC1CC(OC)C(OC2CC(OC)C(OC3OC(C)C(O)C(OC)C3O)C(C)O2)C(C)O1 (stereo unspecified) | > 100 | > 100 | > 100 | 43.5 | > 100 | > 100 | > 100 | 47.2 | 51.2 | 70 | – | – | – | – | – | – | – | – | – | –
22 | CC[C@H](C)C1=C(OC(C)=O)[N@+]2([O-])Oc3ccc(-c4c(O)c(O)c(-c5ccc(OC(C)=O)cc5)c(OC(C)=O)c4OC(C)=O)cc3O[C@]2([C@@H](C)CC)C(=O)N1O | > 50 | > 50 | 44.7 | > 50 | 26.9 | > 50 | > 50 | > 50 | > 50 | – | – | – | – | – | – | – | – | – | – | –
23 | Nc1c(OCC(=O)O)ccc2cc(S(=O)(=O)O)ccc12 | > 100 | > 100 | > 100 | > 100 | > 100 | > 100 | > 100 | > 100 | > 100 | > 100 | – | – | – | – | – | – | – | – | – | –
24 | O=C(O)C(O)(c1ccc(-c2ccccc2)cc1)c1ccc(-c2ccccc2)cc1 | 46.3 | – | 57.3 | 31.8 | > 100 | > 100 | 70 | 51.6 | – | 48.2 | – | – | – | – | – | – | – | – | – | –
25 | CO/N=C(/C)c1cccc(Nc2nc3ccc(Cl)cc3c3[nH]c4ccccc4c23)c1 | 24.4 | 45.8 | 29.4 | 26 | – | 23.1 | 32.6 | 6.92 | 30.1 | – | – | – | – | – | – | – | – | – | – | –
26 | C[C@]12Cc3cnc(-c4ccccc4)nc3C[C@@H]1CC[C@@H]1[C@@H]2CC[C@@]2(C)[C@H]1CC[C@]2(C)O | 41.6 | 65.2 | 63.3 | 31.3 | 66.7 | 40.4 | 36.3 | 12.3 | 9.55 | 21.6 | – | – | – | – | – | – | – | – | – | –
27 | O=C(O)C1OC1C(=O)O (stereo unspecified) | > 100 | > 100 | > 100 | > 100 | > 100 | > 100 | – | > 100 | – | > 100 | – | – | – | – | – | – | – | – | – | –
28 | CC(C)=Cc1cc(C)c2c3c(c(O)c(O)c(C)c13)C(C)=CC2=O | 47.2 | 74.4 | > 100 | 38 | – | > 100 | > 100 | – | 71.6 | – | – | – | – | – | – | – | – | – | – | –
29 | O=NN1C(c2ccccc2)C2CCCC(C2=O)C1c1ccccc1 (stereo unspecified) | 56 | – | > 92.7 | 54.9 | 66.3 | > 100 | – | 41.8 | > 100 | 61 | – | – | – | – | – | – | – | – | – | –
30 | Cc1cn(C2C=CC(COP(=O)(OCc3ccc([N+](=O)[O-])o3)N(C)CCCCCl)O2)c(=O)[nH]c1=O (stereo unspecified) | 30.9 | 9.89 | 12.7 | 13.5 | 17.2 | 32.4 | 27.8 | 11.3 | 12.3 | 10.8 | – | – | – | – | – | – | – | – | – | –
31 | NC1C=NNC1=O (stereo unspecified) | – | – | > 100 | > 100 | > 100 | > 100 | – | > 100 | > 100 | > 100 | – | – | – | – | – | – | – | – | – | –
32 | CCOC(=O)c1nc2ccccc2n(CC)c1=O | > 100 | > 100 | > 100 | > 100 | > 100 | > 100 | > 100 | > 100 | > 100 | – | – | – | – | – | – | – | – | – | – | –
